Measured values reported in publication PMC7524750, “Dual COX and 5-LOX inhibition by clerodane diterpenes from seeds of Polyalthia longifolia (Sonn.) Thwaites” (Scientific Reports, 2020).
Where two headings read alike, the source gives them in different places.

What was measured:
COX-1 = molecular target: T1, COX-1 (Ovis aries, UniProt P05979); test: Cyclooxygenase COX-1 inhibitory assay (Cayman COX inhibitor assay kit); format: biochemical, ovine; conditions: mean ± SD, n=3; for inhibition at 2.5 µg/mL / inhibition at 5 µg/mL / inhibition at 7.5 µg/mL / inhibition at 10 µg/mL: read-out: Percentage inhibition COX1
T1 construct: purchased Cayman 560131
T1 sequence (P05979 25-600): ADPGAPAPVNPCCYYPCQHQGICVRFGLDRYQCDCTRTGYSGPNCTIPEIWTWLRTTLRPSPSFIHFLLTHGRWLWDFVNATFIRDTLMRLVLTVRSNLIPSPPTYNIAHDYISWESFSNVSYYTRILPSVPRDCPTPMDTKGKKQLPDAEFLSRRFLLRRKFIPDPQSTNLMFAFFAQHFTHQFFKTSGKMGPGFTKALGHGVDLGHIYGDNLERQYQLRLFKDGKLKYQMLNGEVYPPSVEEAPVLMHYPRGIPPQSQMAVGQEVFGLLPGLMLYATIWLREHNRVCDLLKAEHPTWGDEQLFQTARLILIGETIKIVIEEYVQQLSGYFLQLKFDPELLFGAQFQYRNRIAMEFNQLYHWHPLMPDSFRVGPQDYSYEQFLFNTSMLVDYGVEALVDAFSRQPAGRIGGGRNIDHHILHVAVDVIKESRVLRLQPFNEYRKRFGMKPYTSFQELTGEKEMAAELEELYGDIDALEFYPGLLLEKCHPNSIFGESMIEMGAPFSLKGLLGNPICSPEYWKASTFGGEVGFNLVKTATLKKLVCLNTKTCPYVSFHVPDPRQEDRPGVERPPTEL
Method: (§1) To 10 µl of either COX1 or COX2 added 0.1 M Tris–HCl buffer (960 µl) and different known concentrations of test samples and incubated at 37 °C for 10 min. Later 10 µl of 100 µM arachidonic acid, after 2 min 1 M HCl of 50 µl and Ellman’s reagent, were added. The absorbance was measured spectrophotometrically at 410 nm against the blank. The percentage of inhibition was deliberated with the absorbance values, and IC50 values were calculated by linear regression.

[1] = molecular target: T2, 5-LOX (human recombinant) (Homo sapiens, UniProt P09917); test: 5-lipoxygenase inhibitory assay (5-LOX assay kit); format: biochemical; conditions: mean ± SD, n=3; for inhibition at 2.5 µg/mL / inhibition at 5 µg/mL / inhibition at 7.5 µg/mL / inhibition at 10 µg/mL: read-out: Percentage inhibition 5-LOX
T2 construct: purchased Sigma Aldrich 437996
T2 sequence (P09917 1-674): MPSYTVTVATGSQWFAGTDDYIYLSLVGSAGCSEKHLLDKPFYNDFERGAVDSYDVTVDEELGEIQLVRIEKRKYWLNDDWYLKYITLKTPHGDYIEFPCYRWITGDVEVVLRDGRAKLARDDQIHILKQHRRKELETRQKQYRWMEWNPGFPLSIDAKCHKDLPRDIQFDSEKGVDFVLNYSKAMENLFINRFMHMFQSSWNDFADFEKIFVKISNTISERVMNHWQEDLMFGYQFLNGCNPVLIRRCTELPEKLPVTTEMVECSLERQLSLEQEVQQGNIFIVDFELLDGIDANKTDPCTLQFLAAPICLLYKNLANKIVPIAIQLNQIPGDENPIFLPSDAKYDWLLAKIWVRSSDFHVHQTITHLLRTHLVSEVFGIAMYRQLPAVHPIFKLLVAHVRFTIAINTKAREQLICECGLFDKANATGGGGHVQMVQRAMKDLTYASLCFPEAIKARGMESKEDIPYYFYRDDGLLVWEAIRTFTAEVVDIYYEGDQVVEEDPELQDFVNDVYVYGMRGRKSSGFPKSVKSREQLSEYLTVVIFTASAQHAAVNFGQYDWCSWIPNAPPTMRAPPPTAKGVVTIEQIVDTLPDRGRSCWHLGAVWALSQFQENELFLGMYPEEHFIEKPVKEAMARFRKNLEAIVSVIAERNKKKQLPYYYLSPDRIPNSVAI
Method: To 90 µl of 5-LOX enzyme solution added different test sample concentrations, 100 µl of de chromogen, and finally added 10 µl of the substrate (arachidonic acid) and gently shake or 10 min and absorbance was measured at 490 nm against the blank. The % inhibition was deliberated with the absorbance values by which IC50 values were calculated by linear regression.

COX-2 = molecular target: T3, COX-2 (Homo sapiens, UniProt P35354); test: Cyclooxygenase COX-2 inhibitory assay (Cayman COX inhibitor assay kit); format: biochemical; conditions: mean ± SD, n=3; for inhibition at 2.5 µg/mL / inhibition at 5 µg/mL / inhibition at 7.5 µg/mL / inhibition at 10 µg/mL: read-out: Percentage inhibition COX2
T3 construct: purchased Cayman 560131
T3 sequence (P35354 18-604): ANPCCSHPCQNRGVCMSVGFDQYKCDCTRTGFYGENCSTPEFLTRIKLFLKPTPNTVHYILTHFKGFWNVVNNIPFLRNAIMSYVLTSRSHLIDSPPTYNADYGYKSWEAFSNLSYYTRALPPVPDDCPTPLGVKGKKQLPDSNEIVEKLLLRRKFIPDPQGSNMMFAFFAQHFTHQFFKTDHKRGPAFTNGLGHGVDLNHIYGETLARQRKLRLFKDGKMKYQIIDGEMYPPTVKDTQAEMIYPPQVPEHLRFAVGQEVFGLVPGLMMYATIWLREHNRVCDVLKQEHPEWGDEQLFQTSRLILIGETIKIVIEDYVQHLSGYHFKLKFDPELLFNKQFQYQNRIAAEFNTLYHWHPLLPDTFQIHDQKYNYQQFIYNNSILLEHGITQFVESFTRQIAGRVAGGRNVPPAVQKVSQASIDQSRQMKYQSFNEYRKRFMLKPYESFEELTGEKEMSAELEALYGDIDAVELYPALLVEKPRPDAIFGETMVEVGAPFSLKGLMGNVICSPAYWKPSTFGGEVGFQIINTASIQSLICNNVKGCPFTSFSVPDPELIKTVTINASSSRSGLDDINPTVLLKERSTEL
Method: as §1

[2] = linear regression, read-out: IC50 values COX1 (converted)
[3] = IC50 5-LOX (concentration required for 50% inhibition), Fig. 2
[4] = linear regression, read-out: IC50 values 5-LOX (converted)
[5] = linear regression, read-out: IC50 values COX2 (converted)

| Structure (SMILES) | inhibition at 2.5 µg/mL (COX-1) [%] | inhibition at 5 µg/mL (COX-1) [%] | inhibition at 7.5 µg/mL (COX-1) [%] | inhibition at 10 µg/mL (COX-1) [%] | IC50 (COX-1; Fig. 2, read-out: IC50 COX-1) [µM] | IC50 (COX-1; [2]) [µM] | inhibition at 2.5 µg/mL [1] [%] | inhibition at 5 µg/mL [1] [%] | inhibition at 7.5 µg/mL [1] [%] | inhibition at 10 µg/mL [1] [%] | IC50 [1, 3] [µM] | IC50 [1, 4] [µM] | inhibition at 2.5 µg/mL (COX-2) [%] | inhibition at 5 µg/mL (COX-2) [%] | inhibition at 7.5 µg/mL (COX-2) [%] | inhibition at 10 µg/mL (COX-2) [%] | IC50 (COX-2; Fig. 2, read-out: IC50 COX-2) [µM] | IC50 (COX-2; [5]) [µM] |
| --- | --- | --- | --- | --- | --- | --- | --- | --- | --- | --- | --- | --- | --- | --- | --- | --- | --- | --- |
| CC1=CCCC2C1(C)CCC(C)C2(C)CCC(C=O)=CC(=O)O (stereo not shown) [Compound 1, 16-oxo-cleroda-3,13(14)E-dien-15-oic acid] | 21.8 ± 1.55 | 40.3 ± 3.77 | 47.1 ± 2.71 | 60.4 ± 4.48 | 25.1 ± 0.99 | 25.1 | 13.4 ± 0.72 | 25.7 ± 2.74 | 41.1 ± 1.43 | 65.4 ± 0.93 | 26.4 ± 0.39 | 26.4 | 10.7 ± 2.91 | 23.4 ± 3.07 | 42.8 ± 0.72 | 62.9 ± 3.84 | 26.4 ± 0.45 | 26.4 |
| CC1=CCCC2C1(C)CCC(C)C2(C)CCC(=CC(=O)O)CO (stereo not shown) [Compound 2, 16-hydroxy-cleroda-3,13-dien-15-oic acid] | 16.3 ± 3 | 28.3 ± 3.1 | 42.5 ± 1.68 | 50.9 ± 0.6 | 30.44 ± 0.3 | 30.4 | 12.5 ± 1.45 | 24.5 ± 1.92 | 40 ± 4.41 | 51.2 ± 1.35 | 30.5 ± 0.53 | 30.5 | 34.5 ± 2.11 | 59.2 ± 0.77 | 77.4 ± 0.9 | 85 ± 1.17 | 12.7 ± 0.34 | 12.7 |
| O=C(O)Cc1ccccc1Nc1c(Cl)cccc1Cl [Diclofenac, reference compound] | – | – | – | – | – | – | 12.4 ± 1.49 | 23.1 ± 4.16 | 42.8 ± 1.82 | 64.4 ± 0.72 | – | – | – | – | – | – | – | – |
| C=C1CCCC2C1(C)CCC(C)C2(C)CCC1=CC(=O)OC1O (stereo not shown) [Compound 3, 16-hydroxy-cleroda-4(18),13-dien-16,15-olide] | 38.1 ± 0.72 | 61.5 ± 1.84 | 68.3 ± 2.99 | 83.9 ± 2.27 | 11.8 ± 0.19 | 11.8 | 34.7 ± 1.47 | 59.3 ± 0.66 | 77.5 ± 0.92 | 85 ± 1.05 | 12.7 ± 0.21 | 12.7 | 48.8 ± 0.96 | 63.2 ± 1.41 | 73.3 ± 1.15 | 82.97 ± 0.44 | 8.49 ± 0.55 | 8.51 |
| CC1=CCCC2C1(C)CCC(C)C2(C)CCC1=CC(=O)OC1O (stereo not drawn) [Compound 5, 16α-hydroxy-cleroda-3,13(14)Z-dien-15,16-olide] | 42.3 ± 2.05 | 79.5 ± 1.01 | 86.5 ± 1.27 | 92.9 ± 2.46 | 9.46 ± 0.33 | 9.45 | 30 ± 1.04 | 54.1 ± 1.1 | 67.2 ± 4.61 | 75.8 ± 2.97 | 14.4 ± 0.32 | 14.4 | 46.6 ± 0.9 | 57.2 ± 1.57 | 69.3 ± 3.66 | 79.4 ± 4.39 | 10.3 ± 0.26 | 10.3 |
| C=C1C(O)CCC2C1(C)CCC(C)C2(C)CCC1=CC(=O)OC1O (stereo not drawn) [Compound 4, 3α,16α-dihydroxy-cleroda-4(18),13(14)Z-dien-15,16-olide] | 40.8 ± 0.79 | 61.1 ± 0.69 | 72.3 ± 3.77 | 79.5 ± 2.53 | 10.8 ± 0.17 | 10.9 | 23.2 ± 2.28 | 44.3 ± 1.68 | 55.4 ± 0.65 | 67.2 ± 2.67 | 16.9 ± 0.56 | 17 | 36.8 ± 2.52 | 55.21 ± 0.43 | 67.1 ± 2.47 | 75.1 ± 2.73 | 12.8 ± 0.21 | 12.8 |
